# Publication PMC12150326 (The Journal of Organic Chemistry, 2025)
# How the values were obtained:
# [1] = biological target: colchicine site of bovine brain tubulin; format: binding; details: tubulin binding constant, 25 °C; read-out: Kd
# Experimental: Inhibition of this fluorescence increase was measured and converted to K d for the test compound as described.
# bovine brain tubulin = test: Tubulin polymerization inhibition; format: biochemical; details: 10 μM tubulin
# Experimental: Inhibition of tubulin polymerization was determined as described previously. In brief, 10 μM bovine brain tubulin (PurSolutions, LLC (puresoluble.com)) was incubated under conditions strongly promoting polymerization of tubulin (1 M NaGlutamate, 0.1 M Mes (Morpholinoethanesulfonic acid), 1 mM MgCl2, 0.5 mM GTP, pH 6.9), in the absence or presence of 3.3 or 33 μM test compound, incubated for 30 min at 37 °C, then centrifuged at 100,000g for 8 min, and the top 3/4 of the supernatant removed. Protein concentration was measured, and polymerization was determined as pelletable protein lost from the supernatant.
# A549 = test: Cell-growth inhibition (CellTiter); format: cell-based, human; details: A549, 3 days; read-out: Cell Growth Inhibition GI50 ± SE
# Experimental: (§1) Inhibition of cell growth was determined by using standard procedures. Cell lines were obtained from the NCI anticancer drug screen and maintained in DMEM medium supplemented with 10% fetal bovine serum. Growing cells were exposed to serial dilutions of each compound for 3 days. Cell growth was determined with CellTiter Assay Reagent (Promega), and growth parameters, including inhibition of growth, were measured by using the methods specified by the manufacturer.
# M14 [2] = test: Cell-growth inhibition (CellTiter); format: cell-based, human; details: M14, 3 days; read-out: Cell Growth Inhibition GI50 ± SE
# Experimental: as §1
# PC3 = test: Cell-growth inhibition (CellTiter); format: cell-based, human; details: PC3, 3 days; read-out: Cell Growth Inhibition GI50 ± SE
# Experimental: as §1
# A498 = format: cell-based, human
# Experimental: (§2) (aR)-6, (aS)-6, (aS)-iso -6, and (aR)-iso -6 were submitted to the 60 Cell Screen panel and evaluated at 5 doses (100 μM, 10 μM, 1 μM, 0.1 μM, and 0.01 μM). […] The complete report from this submission is available at the publisher’s Web site as a separate Supporting Information file. For COMPARE analysis, TGI levels of response for (aR)-DM-MTC (6) and (aS)-iso-DM-MTC were compared to those of several established tubulin inhibitors previously tested in the NCI-60 screen.
# A549/ATCC = format: cell-based, human
# Experimental: as §2
# BT-549 = format: cell-based, human
# Experimental: as §2
# CCRF-CEM = format: cell-based, human
# Experimental: as §2
# EKVX = format: cell-based, human
# Experimental: as §2
# HCT-15 = format: cell-based, human
# Experimental: as §2
# HOP-62 = format: cell-based, human
# Experimental: as §2
# HS 578T = format: cell-based, human
# Experimental: as §2
# IGROV1 = format: cell-based, human
# Experimental: as §2
# K-562 = format: cell-based, human
# Experimental: as §2
# M14 [3] = format: cell-based, human
# Experimental: as §2
# MOLT-4 = format: cell-based, human
# Experimental: as §2
# NCI-H522 = format: cell-based, human
# Experimental: as §2
# SF-295 = format: cell-based, human
# Experimental: as §2
# SK-MEL-28 = format: cell-based, human
# Experimental: as §2
# SK-OV-3 = format: cell-based, human
# Experimental: as §2
# SR = format: cell-based, human
# Experimental: as §2
# TK-10 = format: cell-based, human
# Experimental: as §2
# UACC-62 = format: cell-based, human
# Experimental: as §2
# UO-31 = format: cell-based, human
# Experimental: as §2
smiles,measurement,setting,value
"COc1cc(C)c(-c2ccc(OC)c(=O)cc2C)c(OC)c1OC (single isomer, unassigned) [(aS)-6]",Kd,[1],230 µM
same,Polymerization Inhibition (%) 3.3 μM,bovine brain tubulin; 3.3 μM compound,0%
same,Polymerization Inhibition (%) 33 μM,bovine brain tubulin; 33 μM compound,0%
same,GI50,A549,> 20 µM
same,GI50,M14 [2],> 20 µM
same,GI50,PC3,> 20 µM
same,Log10GI50,A498,> -4.00 Molar
same,Log10LC50,A498,> -4.00 Molar
same,Log10TGI,A498,> -4.00 Molar
same,Log10GI50,A549/ATCC,> -4.00 Molar
same,Log10LC50,A549/ATCC,> -4.00 Molar
same,Log10TGI,A549/ATCC,> -4.00 Molar
same,Log10GI50,BT-549,> -4.00 Molar
same,Log10LC50,BT-549,> -4.00 Molar
same,Log10TGI,BT-549,> -4.00 Molar
same,Log10GI50,CCRF-CEM,> -4.00 Molar
same,Log10LC50,CCRF-CEM,> -4.00 Molar
same,Log10TGI,CCRF-CEM,> -4.00 Molar
same,Log10GI50,EKVX,> -4.00 Molar
same,Log10LC50,EKVX,> -4.00 Molar
same,Log10TGI,EKVX,> -4.00 Molar
same,Log10GI50,HCT-15,> -4.00 Molar
same,Log10LC50,HCT-15,> -4.00 Molar
same,Log10TGI,HCT-15,> -4.00 Molar
same,Log10GI50,HOP-62,> -4.00 Molar
same,Log10LC50,HOP-62,> -4.00 Molar
same,Log10TGI,HOP-62,> -4.00 Molar
same,Log10GI50,HS 578T,> -4.00 Molar
same,Log10LC50,HS 578T,> -4.00 Molar
same,Log10TGI,HS 578T,> -4.00 Molar
same,Log10GI50,IGROV1,> -4.00 Molar
same,Log10LC50,IGROV1,> -4.00 Molar
same,Log10TGI,IGROV1,> -4.00 Molar
same,Log10GI50,K-562,-4.38 Molar
same,Log10LC50,K-562,> -4.00 Molar
same,Log10TGI,K-562,> -4.00 Molar
same,Log10GI50,M14 [3],> -4.00 Molar
same,Log10LC50,M14 [3],> -4.00 Molar
same,Log10TGI,M14 [3],> -4.00 Molar
same,Log10GI50,MOLT-4,> -4.00 Molar
same,Log10LC50,MOLT-4,> -4.00 Molar
same,Log10TGI,MOLT-4,> -4.00 Molar
same,Log10GI50,NCI-H522,> -4.00 Molar
same,Log10LC50,NCI-H522,> -4.00 Molar
same,Log10TGI,NCI-H522,> -4.00 Molar
same,Log10GI50,SF-295,> -4.00 Molar
same,Log10LC50,SF-295,> -4.00 Molar
same,Log10TGI,SF-295,> -4.00 Molar
same,Log10GI50,SK-MEL-28,> -4.00 Molar
same,Log10LC50,SK-MEL-28,> -4.00 Molar
same,Log10TGI,SK-MEL-28,> -4.00 Molar
same,Log10GI50,SK-OV-3,> -4.00 Molar
same,Log10LC50,SK-OV-3,> -4.00 Molar
same,Log10TGI,SK-OV-3,> -4.00 Molar
same,Log10GI50,SR,> -4.00 Molar
same,Log10LC50,SR,> -4.00 Molar
same,Log10TGI,SR,> -4.00 Molar
same,Log10GI50,TK-10,> -4.00 Molar
same,Log10LC50,TK-10,> -4.00 Molar
same,Log10TGI,TK-10,> -4.00 Molar
same,Log10GI50,UACC-62,> -4.00 Molar
same,Log10LC50,UACC-62,> -4.00 Molar
same,Log10TGI,UACC-62,> -4.00 Molar
same,Log10GI50,UO-31,> -4.00 Molar
same,Log10LC50,UO-31,> -4.00 Molar
same,Log10TGI,UO-31,> -4.00 Molar
